# How the values were obtained:
# RPE cells = test: Cell size / morphology (rhodamine-phalloidin staining) upon TGF-β1; format: cell-based; details: 5Z-7-oxozeaenol 1 μM or SB431542 10 μM prior to TGF-β1
# Description: FIG. 3A: RPE cells were plated on fibronectin-coated glass coverslips, serum-starved for 16 hours, pretreated with 5Z-7-oxozeaenol (1 μM) or SB431542 (10 μM), or DMSO for 1 hour, then treated with or without TGF-β1 for 2 days. Following treatment, the cells were stained with rhodamine-phalloidin (actin fibers-red) and DAPI (blue) and visualized by confocal microscopy. Scale bars: […]. FIG. 3B: Serum-starved RPE cells pretreated with 5Z-7-oxozeaenol (1 μM) or DMSO for 1 hour, and were exposed to TGF-β as in FIG. 3A. Total RNA was extracted at each time point and qPCR was performed. Transcription levels of CTGF were determined after 6 h, 16 h and 24 h. Bars represent the specific mRNA amount relative to GAPDH mRNA in the same samples. All experiments were performed in triplicates. A representative histogram from two independent experiments is shown. FIG. 3C: RPE cells were plated and treated as in FIG. 3A. Following treatment, the cells were immunostained with E-cadherin antibodies (green) and DAPI (blue). Representative photographs of two independent experiments are shown. In addition to the secretion of MMPs and increased migratory capacity, several morphological changes underlie EMT (Lamouille et al., I 2007, 178:437-451). […]
# MMP-9 = MMP-9 activity by gelatin zymography in RPE cell supernatants; format: cell-based; details: RPE cells, SB431542 10 μM pretreatment, TGF-β1 2.5 ng/ml, 24 hours
# Description: FIGS. 2A-2C TAK1 regulates RPE cells EMT phenotype upon TGF-β stimulation. FIG. 2A: RPE cells were serum-starved for 16 hours, pretreated with 5Z-7-oxozeaenol (1 μM) or left untreated for 1 hour. The cells were then treated with TGF-β1 (2.5 ng/ml) as described herein for 24 h and immunostained with α-SMA antibodies (red) and DAPI (blue). Representative photographs of three independent experiments. The histogram in the bottom panel represents quantification of α-SMA antibody pixel intensity. FIG. 2B: RPE cells were serum-starved for 16 hours, then treated with mitomycin C (10 ng/ml) for 3 h. Thereafter, pretreated with 5Z-7-oxozeaenol (1 μM) or Dimethyl sulfoxide (DMSO) for 1 hour. Following this process a scratch was performed in the cell monolayer and the serum free medium was supplemented with TGF-β1 (2.5 ng/ml) or left unsupplemented. Scratches were photo-documented at the indicated times (top panel) and their width was measured using Image-J software. […] Bars are Mean±SD. FIG. 2C: RPE cells were serum-starved for 16 hours then pretreated with 5Z-7-oxozeaenol (1 μM) or SB431542 (10 μM), or DMSO for 1 hour. […] Total MMP-9 activities were processed by gelatin zymography (top panel) and the band intensity values were calculated by Quantity One® 1-D analysis software. […] Data is expressed as the Mean±SD.
compound,measurement,setting,value
NC(=O)c1ccc(-c2nc(-c3ccc4c(c3)OCO4)c(-c3ccccn3)[nH]2)cc1 [SB431542],TGF-β1-induced increase in cell size (hypertrophic RPE cells),RPE cells,abolished the increase in cell size
same,activation of MMP-9 by TGF-β1,MMP-9,completely abolished the activation of MMP-9

# From patent publication US10206900B2, “Treatments for fibrotic diseases” (MOR RESEARCH APPLICATIONS LTD., priority 2013, dated 2019)
